Assay results reported in the NIST ThermoML archive (doi:10.1021/je600515j).
Numbers after ± are expanded uncertainties.

Experiments:
[1] = relative permittivity at zero frequency (dimensionless); details: 101.33 kPa, Liquid, dielectric analyzer
[2] = relative permittivity at zero frequency (dimensionless); xn = mol fraction of the nth substance listed; details: 101 kPa, Liquid, dielectric analyzer

Compound | relative permittivity at zero frequency ([1]; 303.15 K) | relative permittivity at zero frequency ([1]; 308.15 K) | relative permittivity at zero frequency ([1]; 313.15 K) | relative permittivity at zero frequency ([1]; 318.15 K) | relative permittivity at zero frequency ([1]; 323.15 K) | relative permittivity at zero frequency ([1]; 328.15 K) | relative permittivity at zero frequency ([2]; 303.15 K, x1 = 0.2) | relative permittivity at zero frequency ([2]; 303.15 K, x1 = 0.4) | relative permittivity at zero frequency ([2]; 303.15 K, x1 = 0.6) | relative permittivity at zero frequency ([2]; 303.15 K, x1 = 0.8) | relative permittivity at zero frequency ([2]; 308.15 K, x1 = 0.2) | relative permittivity at zero frequency ([2]; 308.15 K, x1 = 0.4) | relative permittivity at zero frequency ([2]; 308.15 K, x1 = 0.6) | relative permittivity at zero frequency ([2]; 308.15 K, x1 = 0.8) | relative permittivity at zero frequency ([2]; 313.15 K, x1 = 0.2) | relative permittivity at zero frequency ([2]; 313.15 K, x1 = 0.4) | relative permittivity at zero frequency ([2]; 313.15 K, x1 = 0.6) | relative permittivity at zero frequency ([2]; 313.15 K, x1 = 0.8) | relative permittivity at zero frequency ([2]; 318.15 K, x1 = 0.2) | relative permittivity at zero frequency ([2]; 318.15 K, x1 = 0.4) | further results
CC(O)CO (stereo unspecified) [1,2-propanediol] | 27.87 ± 0.56 | 27.13 ± 0.54 | 26.43 ± 0.53 | 25.76 ± 0.52 | 25.08 ± 0.5 | 24.57 ± 0.49 |  |  |  |  |  |  |  |  |  |  |  |  |  |  | 
CC(C)(N)CO [2-amino-2-methylpropan-1-ol] | 20.59 ± 0.41 | 20.11 ± 0.4 | 19.69 ± 0.39 | 19.27 ± 0.39 | 18.88 ± 0.38 | 18.37 ± 0.37 |  |  |  |  |  |  |  |  |  |  |  |  |  |  | 
CC(C)(N)CO [2-amino-2-methylpropan-1-ol] + O |  |  |  |  |  |  | 48.24 ± 0.96 | 33.65 ± 0.67 | 26.63 ± 0.53 | 23.35 ± 0.47 | 47.33 ± 0.95 | 32.99 ± 0.66 | 26.17 ± 0.52 | 22.82 ± 0.46 | 46.43 ± 0.93 | 32.33 ± 0.65 | 25.65 ± 0.51 | 22.28 ± 0.45 | 45.46 ± 0.91 | 31.8 ± 0.64 | relative permittivity at zero frequency ([2]; 318.15 K, x1 = 0.6): 25.14 ± 0.5; relative permittivity at zero frequency ([2]; 318.15 K, x1 = 0.8): 21.87 ± 0.44; relative permittivity at zero frequency ([2]; 323.15 K, x1 = 0.2): 44.31 ± 0.89; relative permittivity at zero frequency ([2]; 323.15 K, x1 = 0.4): 31.15 ± 0.62; relative permittivity at zero frequency ([2]; 323.15 K, x1 = 0.6): 24.95 ± 0.5; relative permittivity at zero frequency ([2]; 323.15 K, x1 = 0.8): 21.42 ± 0.43; relative permittivity at zero frequency ([2]; 328.15 K, x1 = 0.2): 43.13 ± 0.86; relative permittivity at zero frequency ([2]; 328.15 K, x1 = 0.4): 30.11 ± 0.6; relative permittivity at zero frequency ([2]; 328.15 K, x1 = 0.6): 24.37 ± 0.49; relative permittivity at zero frequency ([2]; 328.15 K, x1 = 0.8): 21.03 ± 0.42
CC(O)CNCC(C)O (stereo unspecified) [N-(2-hydroxypropyl)-2-hydroxy-1-propanamine] | 13.87 ± 0.28 | 13.75 ± 0.28 | 13.62 ± 0.27 | 13.49 ± 0.27 | 13.36 ± 0.27 | 13.26 ± 0.27 |  |  |  |  |  |  |  |  |  |  |  |  |  |  | 
CC(O)CNCC(C)O (stereo unspecified) [N-(2-hydroxypropyl)-2-hydroxy-1-propanamine] + O |  |  |  |  |  |  | 41.34 ± 0.83 | 24.52 ± 0.49 | 18.46 ± 0.37 | 16.65 ± 0.33 | 40.27 ± 0.81 | 24 ± 0.48 | 18.15 ± 0.36 | 16.45 ± 0.33 | 39.35 ± 0.79 | 23.48 ± 0.47 | 17.84 ± 0.36 | 16.26 ± 0.33 | 38.46 ± 0.77 | 23 ± 0.46 | relative permittivity at zero frequency ([2]; 318.15 K, x1 = 0.6): 17.53 ± 0.35; relative permittivity at zero frequency ([2]; 318.15 K, x1 = 0.8): 16.05 ± 0.32; relative permittivity at zero frequency ([2]; 323.15 K, x1 = 0.2): 37.74 ± 0.75; relative permittivity at zero frequency ([2]; 323.15 K, x1 = 0.4): 22.52 ± 0.45; relative permittivity at zero frequency ([2]; 323.15 K, x1 = 0.6): 17.2 ± 0.34; relative permittivity at zero frequency ([2]; 323.15 K, x1 = 0.8): 15.83 ± 0.32; relative permittivity at zero frequency ([2]; 328.15 K, x1 = 0.2): 37.16 ± 0.74; relative permittivity at zero frequency ([2]; 328.15 K, x1 = 0.4): 22.19 ± 0.44; relative permittivity at zero frequency ([2]; 328.15 K, x1 = 0.6): 16.97 ± 0.34; relative permittivity at zero frequency ([2]; 328.15 K, x1 = 0.8): 15.66 ± 0.31
CN(CCO)CCO [N-methyldiethanolamine] | 21.84 ± 0.44 | 21.33 ± 0.43 | 20.83 ± 0.42 | 20.32 ± 0.41 | 19.79 ± 0.4 | 19.28 ± 0.39 |  |  |  |  |  |  |  |  |  |  |  |  |  |  | 
CN(CCO)CCO [N-methyldiethanolamine] + O |  |  |  |  |  |  | 48.77 ± 0.98 | 33.92 ± 0.68 | 26.68 ± 0.53 | 23.44 ± 0.47 | 47.54 ± 0.95 | 33.09 ± 0.66 | 26.03 ± 0.52 | 22.86 ± 0.46 | 46.36 ± 0.93 | 32.16 ± 0.64 | 25.4 ± 0.51 | 22.31 ± 0.45 | 45.14 ± 0.9 | 31.25 ± 0.63 | relative permittivity at zero frequency ([2]; 318.15 K, x1 = 0.6): 24.69 ± 0.49; relative permittivity at zero frequency ([2]; 318.15 K, x1 = 0.8): 21.77 ± 0.44; relative permittivity at zero frequency ([2]; 323.15 K, x1 = 0.2): 43.98 ± 0.88; relative permittivity at zero frequency ([2]; 323.15 K, x1 = 0.4): 30.37 ± 0.61; relative permittivity at zero frequency ([2]; 323.15 K, x1 = 0.6): 23.96 ± 0.48; relative permittivity at zero frequency ([2]; 323.15 K, x1 = 0.8): 21.15 ± 0.42; relative permittivity at zero frequency ([2]; 328.15 K, x1 = 0.2): 42.68 ± 0.85; relative permittivity at zero frequency ([2]; 328.15 K, x1 = 0.4): 29.41 ± 0.59; relative permittivity at zero frequency ([2]; 328.15 K, x1 = 0.6): 23.21 ± 0.46; relative permittivity at zero frequency ([2]; 328.15 K, x1 = 0.8): 20.56 ± 0.41
OCCNCCO [diethanolamine] | 24.69 ± 0.49 | 24.3 ± 0.49 | 23.86 ± 0.48 | 23.28 ± 0.47 | 22.63 ± 0.45 | 22.13 ± 0.44 |  |  |  |  |  |  |  |  |  |  |  |  |  |  | 
OCCNCCO [diethanolamine] + O |  |  |  |  |  |  | 52.65 ± 1.1 | 39.11 ± 0.78 | 30.57 ± 0.61 | 26.95 ± 0.54 | 51.53 ± 1 | 38.06 ± 0.76 | 29.75 ± 0.6 | 26.41 ± 0.53 | 49.58 ± 0.99 | 36.95 ± 0.74 | 28.91 ± 0.58 | 25.86 ± 0.52 | 48.31 ± 0.97 | 35.81 ± 0.72 | relative permittivity at zero frequency ([2]; 318.15 K, x1 = 0.6): 28.07 ± 0.56; relative permittivity at zero frequency ([2]; 318.15 K, x1 = 0.8): 25.42 ± 0.51; relative permittivity at zero frequency ([2]; 323.15 K, x1 = 0.2): 46.78 ± 0.94; relative permittivity at zero frequency ([2]; 323.15 K, x1 = 0.4): 34.68 ± 0.69; relative permittivity at zero frequency ([2]; 323.15 K, x1 = 0.6): 27.36 ± 0.55; relative permittivity at zero frequency ([2]; 323.15 K, x1 = 0.8): 24.81 ± 0.5; relative permittivity at zero frequency ([2]; 328.15 K, x1 = 0.2): 45.68 ± 0.91; relative permittivity at zero frequency ([2]; 328.15 K, x1 = 0.4): 33.73 ± 0.67; relative permittivity at zero frequency ([2]; 328.15 K, x1 = 0.6): 26.7 ± 0.53; relative permittivity at zero frequency ([2]; 328.15 K, x1 = 0.8): 24.13 ± 0.48
OCCN(CCO)CCO [triethanolamine] | 28.11 ± 0.56 | 27.41 ± 0.55 | 26.73 ± 0.53 | 26.07 ± 0.52 | 25.41 ± 0.51 | 24.8 ± 0.5 |  |  |  |  |  |  |  |  |  |  |  |  |  |  | 
OCCN(CCO)CCO [triethanolamine] + O |  |  |  |  |  |  | 49.25 ± 0.99 | 36.34 ± 0.73 | 31.48 ± 0.63 | 29.67 ± 0.59 | 48.14 ± 0.96 | 35.44 ± 0.71 | 30.66 ± 0.61 | 28.92 ± 0.58 | 47.23 ± 0.94 | 34.53 ± 0.69 | 29.85 ± 0.6 | 28.17 ± 0.56 | 46.33 ± 0.93 | 33.6 ± 0.67 | relative permittivity at zero frequency ([2]; 318.15 K, x1 = 0.6): 29.05 ± 0.58; relative permittivity at zero frequency ([2]; 318.15 K, x1 = 0.8): 27.43 ± 0.55; relative permittivity at zero frequency ([2]; 323.15 K, x1 = 0.2): 45.45 ± 0.91; relative permittivity at zero frequency ([2]; 323.15 K, x1 = 0.4): 32.73 ± 0.65; relative permittivity at zero frequency ([2]; 323.15 K, x1 = 0.6): 28.25 ± 0.57; relative permittivity at zero frequency ([2]; 323.15 K, x1 = 0.8): 26.69 ± 0.53; relative permittivity at zero frequency ([2]; 328.15 K, x1 = 0.2): 44.63 ± 0.89; relative permittivity at zero frequency ([2]; 328.15 K, x1 = 0.4): 31.93 ± 0.64; relative permittivity at zero frequency ([2]; 328.15 K, x1 = 0.6): 27.51 ± 0.55; relative permittivity at zero frequency ([2]; 328.15 K, x1 = 0.8): 26.04 ± 0.52
